Where two headings read alike, the source gives them in different places.
Legend:
[1] = test system: NF-κB-SEAP reporter in THP1-Dual cells; experiment: THP1-Dual NF-κB-SEAP reporter counterscreen; format: cell-based, human; details: Homo sapiens, THP1-Dual, read-out: THP1 NFkB EC50
Summary of the method: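 THP1-Dual cells differentiated 48 h with 5 ng/mL PMA, washed, then treated 24 h with compounds at 10 μM final; LPS 313 ng/mL as control. Supernatant read for Lucia luciferase (ISRE) by QUANTI-Luc luminescence and for NF-κB-SEAP by QUANTI-Blue absorbance at 630 nm after 1 h at 37° C.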

[2] = test system: IRF-Lucia luciferase reporter (ISRE) in J774-Dual cells; experiment: J774-Dual IRF-Lucia luciferase reporter assay (ISRE activation); format: cell-based, mouse; details: for EC50: Mus musculus, read-out: J774 IRF EC50
Summary of the method: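 Mouse J774-Dual macrophages, seeded in growth medium 24 h at 37 °C, 5% CO2 before treatment; secreted IRF-Lucia (ISRE-driven) and NF-κB-SEAP read with QUANTI-Luc and QUANTI-Blue. EC50 and CC50 from 8-point dose-response, cytotoxicity by CellTiter-Glo; ISRE:NF-κB ratio calculated.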

[3] = Mouse Reporter Cell Line J774, at peak
[4] = J774, Mouse Reporter Cell Line J774

SMILES | EC50 ([1]; Human Reporter Cell Line THP1) | J774 IRF % activation at peak [2, 3] | EC50 [2, 4] | EC50 ([1]; Human Reporter Cell Line, 8-point dose response) | J774 IRF % activation at peak ([2]; Mouse Reporter Cell Line) | EC50 ([2]; J774, Mouse Reporter Cell Line, 8-point dose response)
Cc1ccc(NC(=O)c2cc(NC(=O)c3cccs3)ccc2N2CCOCC2)cc1Br [NB-23] | 4.59 µM | 72.79% | 6.56 µM | – | – | –
COc1ccc(-c2nc3cc(C(C)C)ccc3o2)cc1NC(=O)c1ccc(C)c([N+](=O)[O-])c1 [ND-16] | 3.25 µM | 83.02% | 3.58 µM | – | – | –
O=C(Nc1ccc(N2CCOCC2)c(C(=O)Nc2ccc(OCc3ccccc3)cc2)c1)c1cccs1 [NB-18] | 3.66 µM | 2.303% | ~4.84 µM | – | – | –
O=C(Nc1ccc(N2CCN(C(=O)c3cccs3)CC2)cc1)c1ccc(-c2cc3ccccc3oc2=O)cc1 [NA-32] | – | – | – | 3.13 µM | 77.58% | 11.9 µM
